Assay results as given in the supplement of paper PMC10883282.
± gives the standard deviation of the averaged measurements.

Legend:
Test in all cases: relative viability vs DMSO control (72 h) (fraction); higher = more viable cells
SK-ES-1 = tested on: SK-ES-1
Procedure, shortened: (§1)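 Relative viability is percent growth read by ATPLite and averaged over up to triplicate wells. Sarcoma cells were seeded in 384-well plates to reach 80–90% confluence and given 2.5 µl of serially diluted compound after 24 h, from source plates of 10 mM to 0.0002 mM. Incubation lasted 72 h at 37 °C, 5% CO2, with 0.1% DMSO vehicle and a 5 µM positive control, and the data were rescaled so 1 equals full and 0 equals none.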

SW982 = tested on: SW982
Procedure, shortened: as §1

A204 = tested on: A204
Procedure, shortened: as §1

MES-SA = tested on: MES-SA
Procedure, shortened: as §1

RD = tested on: RD
Procedure, shortened: as §1

HS729 = tested on: HS729
Procedure, shortened: as §1

SK-LMS-1 = tested on: SK-LMS-1
Procedure, shortened: as §1

SW1353 = tested on: SW1353
Procedure, shortened: as §1

SW872 = tested on: SW872
Procedure, shortened: as §1

G401 = tested on: G401
Procedure, shortened: as §1

VA-ES-BJ = tested on: VA-ES-BJ
Procedure, shortened: as §1

KHOS-240S = tested on: KHOS-240S
Procedure, shortened: as §1

Cc1cccc(-c2[nH]c(CNc3ccccc3F)nc2-c2ccc3ncnn3c2)n1 [Vactosertib]
Conditions | relative viability
A204, 0.00017 µM | 1.02 ± 0.052
A204, 0.00051 µM | 1.02 ± 0.031
A204, 0.00152 µM | 1.02 ± 0.014
A204, 0.00457 µM | 1.01 ± 0.031
A204, 0.01372 µM | 1.02 ± 0.082
A204, 0.04115 µM | 1.03 ± 0.053
A204, 0.1235 µM | 0.983 ± 0.048
A204, 0.3704 µM | 1.04 ± 0.044
A204, 1.111 µM | 1.03 ± 0.088
A204, 3.333 µM | 0.953 ± 0.012
A204, 10 µM | 0.822 ± 0.08
G401, 0.00017 µM | 0.942 ± 0.043
G401, 0.00051 µM | 0.937 ± 0.038
G401, 0.00152 µM | 0.969 ± 0.029
G401, 0.00457 µM | 0.984 ± 0.038
G401, 0.01372 µM | 0.97 ± 0.065
G401, 0.04115 µM | 0.937 ± 0.039
G401, 0.1235 µM | 0.9496 ± 0.0058
G401, 0.3704 µM | 0.978 ± 0.034
G401, 1.111 µM | 0.9638 ± 0.0026
G401, 3.333 µM | 0.967 ± 0.058
G401, 10 µM | 0.923 ± 0.043
HS729, 0.00017 µM | 0.964 ± 0.013
HS729, 0.00051 µM | 0.969 ± 0.016
HS729, 0.00152 µM | 0.938 ± 0.023
HS729, 0.00457 µM | 0.962 ± 0.015
HS729, 0.01372 µM | 0.928 ± 0.011
HS729, 0.04115 µM | 0.939 ± 0.025
HS729, 0.1235 µM | 0.882 ± 0.03
HS729, 0.3704 µM | 0.849 ± 0.037
HS729, 1.111 µM | 0.787 ± 0.034
HS729, 3.333 µM | 0.73 ± 0.027
HS729, 10 µM | 0.68 ± 0.04
KHOS-240S, 0.00017 µM | 1.02 ± 0.021
KHOS-240S, 0.00051 µM | 1.04 ± 0.057
KHOS-240S, 0.00152 µM | 1.03 ± 0.028
KHOS-240S, 0.00457 µM | 1.02 ± 0.024
KHOS-240S, 0.01372 µM | 1.03 ± 0.025
KHOS-240S, 0.04115 µM | 1 ± 0.029
KHOS-240S, 0.1235 µM | 0.992 ± 0.042
KHOS-240S, 0.3704 µM | 0.966 ± 0.05
KHOS-240S, 1.111 µM | 0.952 ± 0.064
KHOS-240S, 3.333 µM | 0.885 ± 0.045
KHOS-240S, 10 µM | 0.708 ± 0.022
MES-SA, 0.00017 µM | 0.892 ± 0.03
MES-SA, 0.00051 µM | 0.881 ± 0.0083
MES-SA, 0.00152 µM | 0.885 ± 0.04
MES-SA, 0.00457 µM | 0.866 ± 0.032
MES-SA, 0.01372 µM | 0.877 ± 0.022
MES-SA, 0.04115 µM | 0.901 ± 0.028
MES-SA, 0.1235 µM | 0.894 ± 0.029
MES-SA, 0.3704 µM | 0.897 ± 0.0097
MES-SA, 1.111 µM | 0.842 ± 0.038
MES-SA, 3.333 µM | 0.873 ± 0.013
MES-SA, 10 µM | 0.861 ± 0.031
RD, 0.00017 µM | 1.07 ± 0.05
RD, 0.00051 µM | 1.06 ± 0.057
RD, 0.00152 µM | 1.06 ± 0.026
RD, 0.00457 µM | 1.09 ± 0.019
RD, 0.01372 µM | 1.07 ± 0.017
RD, 0.04115 µM | 1.09 ± 0.036
RD, 0.1235 µM | 1.07 ± 0.07
RD, 0.3704 µM | 1.09 ± 0.019
RD, 1.111 µM | 1.09 ± 0.031
RD, 3.333 µM | 1.07 ± 0.054
RD, 10 µM | 1.09 ± 0.046
SK-ES-1, 0.00017 µM | 0.986 ± 0.035
SK-ES-1, 0.00051 µM | 0.97 ± 0.018
SK-ES-1, 0.00152 µM | 0.98 ± 0.029
SK-ES-1, 0.00457 µM | 0.974 ± 0.028
SK-ES-1, 0.01372 µM | 1.02 ± 0.034
SK-ES-1, 0.04115 µM | 1 ± 0.029
SK-ES-1, 0.1235 µM | 1.04 ± 0.059
SK-ES-1, 0.3704 µM | 1.02 ± 0.024
SK-ES-1, 1.111 µM | 0.964 ± 0.08
SK-ES-1, 3.333 µM | 1.01 ± 0.013
SK-ES-1, 10 µM | 0.898 ± 0.066
SK-LMS-1, 0.00017 µM | 0.968 ± 0.026
SK-LMS-1, 0.00051 µM | 0.963 ± 0.052
SK-LMS-1, 0.00152 µM | 0.981 ± 0.057
SK-LMS-1, 0.00457 µM | 0.982 ± 0.063
SK-LMS-1, 0.01372 µM | 0.984 ± 0.02
SK-LMS-1, 0.04115 µM | 0.978 ± 0.019
SK-LMS-1, 0.1235 µM | 0.95 ± 0.016
SK-LMS-1, 0.3704 µM | 0.918 ± 0.064
SK-LMS-1, 1.111 µM | 0.988 ± 0.032
SK-LMS-1, 3.333 µM | 0.992 ± 0.025
SK-LMS-1, 10 µM | 0.96 ± 0.019
SW872, 0.00017 µM | 0.928 ± 0.04
SW872, 0.00051 µM | 0.938 ± 0.055
SW872, 0.00152 µM | 0.932 ± 0.068
SW872, 0.00457 µM | 0.958 ± 0.047
SW872, 0.01372 µM | 0.979 ± 0.027
SW872, 0.04115 µM | 0.95 ± 0.049
SW872, 0.1235 µM | 0.969 ± 0.024
SW872, 0.3704 µM | 0.999 ± 0.043
SW872, 1.111 µM | 1.06 ± 0.02
SW872, 3.333 µM | 1.062 ± 0.01
SW872, 10 µM | 1.02 ± 0.018
SW982, 0.00017 µM | 0.9904 ± 0.0094
SW982, 0.00051 µM | 1.02 ± 0.034
SW982, 0.00152 µM | 0.999 ± 0.021
SW982, 0.00457 µM | 0.998 ± 0.011
SW982, 0.01372 µM | 0.9987 ± 0.0081
SW982, 0.04115 µM | 1.03 ± 0.033
SW982, 0.1235 µM | 1.01 ± 0.021
SW982, 0.3704 µM | 0.984 ± 0.012
SW982, 1.111 µM | 1 ± 0.033
SW982, 3.333 µM | 1.02 ± 0.023
SW982, 10 µM | 0.936 ± 0.034
SW1353, 0.00017 µM | 0.904 ± 0.015
SW1353, 0.00051 µM | 0.964 ± 0.047
SW1353, 0.00152 µM | 0.89 ± 0.047
SW1353, 0.00457 µM | 0.911 ± 0.098
SW1353, 0.01372 µM | 0.947 ± 0.074
SW1353, 0.04115 µM | 0.953 ± 0.041
SW1353, 0.1235 µM | 0.96 ± 0.031
SW1353, 0.3704 µM | 0.946 ± 0.038
SW1353, 1.111 µM | 0.968 ± 0.05
SW1353, 3.333 µM | 0.893 ± 0.038
SW1353, 10 µM | 0.875 ± 0.021
VA-ES-BJ, 0.00017 µM | 1 ± 0.066
VA-ES-BJ, 0.00051 µM | 1 ± 0.015
VA-ES-BJ, 0.00152 µM | 1.006 ± 0.0055
VA-ES-BJ, 0.00457 µM | 1.02 ± 0.015
VA-ES-BJ, 0.01372 µM | 1.026 ± 0.0052
VA-ES-BJ, 0.04115 µM | 1.04 ± 0.052
VA-ES-BJ, 0.1235 µM | 1.038 ± 0.0089
VA-ES-BJ, 0.3704 µM | 1.08 ± 0.019
VA-ES-BJ, 1.111 µM | 1.11 ± 0.033
VA-ES-BJ, 3.333 µM | 1.11 ± 0.029
VA-ES-BJ, 10 µM | 1.11 ± 0.018
